Type in all cases: biochemical
In one assay the target is T1, JAK3 (Homo sapiens, UniProt P52333).
T1 sequence (P52333 1-1124): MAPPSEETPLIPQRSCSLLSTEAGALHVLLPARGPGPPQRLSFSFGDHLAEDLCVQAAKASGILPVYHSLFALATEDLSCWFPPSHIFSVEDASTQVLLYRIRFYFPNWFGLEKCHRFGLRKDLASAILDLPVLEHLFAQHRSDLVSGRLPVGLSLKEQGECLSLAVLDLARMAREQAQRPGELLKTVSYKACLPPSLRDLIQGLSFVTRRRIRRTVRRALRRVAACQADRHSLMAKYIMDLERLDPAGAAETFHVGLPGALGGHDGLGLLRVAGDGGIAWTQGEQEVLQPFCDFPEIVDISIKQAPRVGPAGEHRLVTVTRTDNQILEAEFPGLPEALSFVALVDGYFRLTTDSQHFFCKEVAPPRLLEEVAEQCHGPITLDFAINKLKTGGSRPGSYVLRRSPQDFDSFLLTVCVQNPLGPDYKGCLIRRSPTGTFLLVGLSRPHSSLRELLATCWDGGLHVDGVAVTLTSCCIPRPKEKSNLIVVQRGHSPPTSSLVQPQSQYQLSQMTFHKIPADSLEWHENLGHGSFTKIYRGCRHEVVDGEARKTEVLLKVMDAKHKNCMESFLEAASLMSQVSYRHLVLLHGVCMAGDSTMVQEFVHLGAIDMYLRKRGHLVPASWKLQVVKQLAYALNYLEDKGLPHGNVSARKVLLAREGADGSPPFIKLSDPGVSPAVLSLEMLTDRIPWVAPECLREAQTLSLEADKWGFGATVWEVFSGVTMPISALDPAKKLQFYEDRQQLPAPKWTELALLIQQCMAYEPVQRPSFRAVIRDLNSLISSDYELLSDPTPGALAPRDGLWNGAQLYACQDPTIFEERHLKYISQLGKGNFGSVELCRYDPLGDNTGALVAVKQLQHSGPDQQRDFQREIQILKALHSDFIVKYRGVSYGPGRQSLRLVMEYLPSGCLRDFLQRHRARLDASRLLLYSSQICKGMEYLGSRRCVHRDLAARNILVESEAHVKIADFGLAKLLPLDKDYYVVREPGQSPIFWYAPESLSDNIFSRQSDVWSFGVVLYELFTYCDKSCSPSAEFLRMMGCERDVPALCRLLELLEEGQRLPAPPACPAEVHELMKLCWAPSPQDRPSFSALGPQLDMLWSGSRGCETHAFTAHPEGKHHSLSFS
Put plainly: Inhibition of JAK kinase activity, EZ Reader microfluidic phosphorylation of peptide substrate: JAK3. To be noted: JAK3 kinase 1 nM; highest final concentration 10 μM, 1:3 serial dilution, 8 points, duplicates. An excerpt: (§1) EZ Reader available from PerkinElmer can be used for detecting the phosphorylation of polypeptide substrates catalyzed by kinases. This device is based on microfluidic separation technology, and can directly detect fluorescence labeled substrates and products. The separation step is achieved in a microfluidic chip by controlling the pressure and electric field intensity. In a kinase experiment, the product conversion rate is generally controlled at 20-30%. This biological assay method is used for identifying the inhibitory effect of the compounds on JAK.
(§2) The compound powder was dissolved in DMSO, sealed and stored in a refrigerator at −20° C. The in-house compound Ref1 was used as a positive control for testing of JAK1, JAK2 and Tyk2, and Ref2 was used as a positive control for testing of JAK3.
(§3) • S2.1. 1M HEPES buffer: 0.5M HEPES free acid and 0.5M HEPES sodium salt are weighed, added into ultrapure water for dissolution, brought to a desired volume, filtered and stored in a refrigerator at 4° C. • S2.2. 40 mM ATP solution: dissolved in a 50 mM HEPES buffer solution, prepared into 40 mM, aliquoted, and cryopreserved in a refrigerator at −20° C. • S2.3. 0.5% Tween 20: 100% Tween 20 was diluted with ultrapure water, and stored in a refrigerator at 4° C. • S2.4. 35% bovine serum albumin: a 35% bovine serum albumin solution is prepared in ultrapure water, aliquoted, and stored in a refrigerator at −20° C. • S2.5. 1M dithiothreitol solution: dithiothreitol is formulated into a 1M solution with ultrapure water, aliquoted, and stored in a refrigerator at −20° C. • S2.6. 0.5 mM Jaktide Peptide substrate solution: it is dissolved in 50 mM HEPES to 0.5 mM, aliquoted, and stored in a refrigerator at −20° C. • S2.7. 0.5 mM IRStide Peptide substrate solution: it is dissolved in 50 mM HEPES to 0.5 mM, aliquoted, and stored in a refrigerator at −20° C. • S2.8. Assay Buffer: 20 mM HEPES buffer, pH 7.4, 10 mM magnesium chloride, 0.01% bovine serum albumin BSA, 0.0005% Tween-20, and a 1 mM dithiothreitol solution. • S2.9. Stop Buffer: 180 mM HEPES buffer, 20 mM ethylenediamine tetraacetic acid (EDTA), and 0.2% Coating Reagent 3. • S2.10. Separation Buffer: 100 mM HEPES buffer, 10 mM EDTA, 0.0005% Tween 20, 0.1% Coating Reagent 3, and 1% dimethyl sulfoxide. 3. Experimental Procedures • S3.1. Preparation of compound plate
(§4) The compound is dissolved in dimethyl sulfoxide to 10 mM, a certain volume is taken and diluted to 0.6 mM, 10 μl of the diluted 0.6 mM solution is taken and added into a 384 microplate or 1:3 serial dilution, with a total of 8 concentration points. • S3.2. Compound layout
(§5) • positive control (HPE1): Ref1, final concentration: 10 μM • positive control (HPE1): Ref2, final concentration: 10 μM • negative control (ZPE): DMSO, with a final concentration of 1.6% • Compound: the highest final concentration at 10 μM, 1:3 serial dilution, with 8 concentration points and in duplicates. 4. Experimental operation steps • S4.1. the experimental plate was added with 250 nl of the compound per well with ECHO, and centrifuged at 1,000 rpm for 1 minute; • S4.2. the precipitate was added with 5 μl of the experimental buffer, and shaken for several seconds to fully dissolve the compound; • S4.3. the solution was added with 5 μl of a 3× substrate solution, as well as 5 μl of a 3× kinase solution, and centrifuged at 800 rpm for 1 minute; • S4.4. The final concentrations of JAK1, JAK2, JAK3 and Tyk2 kinases in the reaction system are 20, 1, 1 and 1 nM, respectively. • S4.5. the reaction system is incubated at room temperature, wherein the incubation time of each kinase is different, and there are differences in incubation time of different batches of kinases. • S4.6. When the reaction reaches 20%-30%, the reaction system is added with 15 μl of the stop buffer to terminate the reaction, and centrifuged at 1,000 rpm for 2 minutes. • S4.7. The precipitate was placed onto a EZ Reader for plate reading. • S4.8. […]

In a further assay the target is JAK1 (Homo sapiens, UniProt P23458). Put plainly: Inhibition of JAK kinase activity, EZ Reader microfluidic phosphorylation of peptide substrate: JAK1. To be noted: JAK1 kinase 20 nM; highest final concentration 10 μM, 1:3 serial dilution, 8 points, duplicates. The gist of the method:
(§6)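 Microfluidic mobility-shift assay reading fluorescent peptide substrate and product; kinases at 20 nM (JAK1) or 1 nM (JAK2, JAK3, Tyk2) in pH 7.4 HEPES with 10 mM MgCl2, run at room temperature to 20-30% conversion, then stopped with EDTA. Compounds tested from 10 μM top, 1:3 over 8 points in duplicate; IC50 fitted from % conversion.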

The next assay concerns the target JAK2 (Homo sapiens, UniProt O60674). Kind of assay: Inhibition of JAK kinase activity, EZ Reader microfluidic phosphorylation of peptide substrate: JAK2. To be noted: JAK2 kinase 1 nM; highest final concentration 10 μM, 1:3 serial dilution, 8 points, duplicates.
Source text: as §1, §2, §3, §4, §5

The next assay deals with Tyk2 (Homo sapiens, UniProt P29597). Kind of assay: Inhibition of JAK kinase activity, EZ Reader microfluidic phosphorylation of peptide substrate: Tyk2. The following applies: Tyk2 kinase 1 nM; highest final concentration 10 μM, 1:3 serial dilution, 8 points, duplicates. The gist of the method: as §6
Chain of Tyk2 (P29597 whole entry): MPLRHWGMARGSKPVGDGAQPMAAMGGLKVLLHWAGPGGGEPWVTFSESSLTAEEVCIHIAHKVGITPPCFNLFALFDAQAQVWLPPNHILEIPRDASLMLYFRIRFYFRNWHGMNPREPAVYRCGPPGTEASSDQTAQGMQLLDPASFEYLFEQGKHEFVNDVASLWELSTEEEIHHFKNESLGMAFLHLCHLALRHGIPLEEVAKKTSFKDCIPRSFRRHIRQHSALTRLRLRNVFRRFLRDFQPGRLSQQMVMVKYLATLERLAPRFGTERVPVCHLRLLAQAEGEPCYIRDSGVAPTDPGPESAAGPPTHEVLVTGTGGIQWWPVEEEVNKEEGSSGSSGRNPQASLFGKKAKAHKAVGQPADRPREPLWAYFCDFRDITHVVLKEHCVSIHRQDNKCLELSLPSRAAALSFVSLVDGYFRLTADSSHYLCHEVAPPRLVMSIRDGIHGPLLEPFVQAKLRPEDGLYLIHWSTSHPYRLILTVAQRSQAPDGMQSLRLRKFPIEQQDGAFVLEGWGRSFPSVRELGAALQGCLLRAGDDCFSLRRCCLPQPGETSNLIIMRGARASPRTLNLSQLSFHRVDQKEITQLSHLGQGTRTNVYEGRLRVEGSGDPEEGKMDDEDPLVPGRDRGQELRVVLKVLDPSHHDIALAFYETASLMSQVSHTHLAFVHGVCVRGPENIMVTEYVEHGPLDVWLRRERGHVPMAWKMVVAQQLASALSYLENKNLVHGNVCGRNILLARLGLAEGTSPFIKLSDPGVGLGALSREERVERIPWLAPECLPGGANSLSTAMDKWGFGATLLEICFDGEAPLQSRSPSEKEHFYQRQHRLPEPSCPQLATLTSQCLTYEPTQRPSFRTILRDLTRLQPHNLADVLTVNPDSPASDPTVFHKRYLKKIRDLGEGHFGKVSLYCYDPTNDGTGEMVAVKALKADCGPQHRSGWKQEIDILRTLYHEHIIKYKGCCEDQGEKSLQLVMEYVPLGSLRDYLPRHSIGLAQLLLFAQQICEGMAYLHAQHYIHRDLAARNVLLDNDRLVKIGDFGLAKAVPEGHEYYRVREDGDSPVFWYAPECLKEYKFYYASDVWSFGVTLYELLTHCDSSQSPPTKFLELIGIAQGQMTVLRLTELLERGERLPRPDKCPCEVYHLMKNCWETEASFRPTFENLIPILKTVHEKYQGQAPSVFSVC

This is an account of results in patent US12509447B2, “Small molecule compound” (Technoderma Medicines Pte Ltd, priority 2019, dated 2025).

Chain of JAK2 (O60674 whole entry): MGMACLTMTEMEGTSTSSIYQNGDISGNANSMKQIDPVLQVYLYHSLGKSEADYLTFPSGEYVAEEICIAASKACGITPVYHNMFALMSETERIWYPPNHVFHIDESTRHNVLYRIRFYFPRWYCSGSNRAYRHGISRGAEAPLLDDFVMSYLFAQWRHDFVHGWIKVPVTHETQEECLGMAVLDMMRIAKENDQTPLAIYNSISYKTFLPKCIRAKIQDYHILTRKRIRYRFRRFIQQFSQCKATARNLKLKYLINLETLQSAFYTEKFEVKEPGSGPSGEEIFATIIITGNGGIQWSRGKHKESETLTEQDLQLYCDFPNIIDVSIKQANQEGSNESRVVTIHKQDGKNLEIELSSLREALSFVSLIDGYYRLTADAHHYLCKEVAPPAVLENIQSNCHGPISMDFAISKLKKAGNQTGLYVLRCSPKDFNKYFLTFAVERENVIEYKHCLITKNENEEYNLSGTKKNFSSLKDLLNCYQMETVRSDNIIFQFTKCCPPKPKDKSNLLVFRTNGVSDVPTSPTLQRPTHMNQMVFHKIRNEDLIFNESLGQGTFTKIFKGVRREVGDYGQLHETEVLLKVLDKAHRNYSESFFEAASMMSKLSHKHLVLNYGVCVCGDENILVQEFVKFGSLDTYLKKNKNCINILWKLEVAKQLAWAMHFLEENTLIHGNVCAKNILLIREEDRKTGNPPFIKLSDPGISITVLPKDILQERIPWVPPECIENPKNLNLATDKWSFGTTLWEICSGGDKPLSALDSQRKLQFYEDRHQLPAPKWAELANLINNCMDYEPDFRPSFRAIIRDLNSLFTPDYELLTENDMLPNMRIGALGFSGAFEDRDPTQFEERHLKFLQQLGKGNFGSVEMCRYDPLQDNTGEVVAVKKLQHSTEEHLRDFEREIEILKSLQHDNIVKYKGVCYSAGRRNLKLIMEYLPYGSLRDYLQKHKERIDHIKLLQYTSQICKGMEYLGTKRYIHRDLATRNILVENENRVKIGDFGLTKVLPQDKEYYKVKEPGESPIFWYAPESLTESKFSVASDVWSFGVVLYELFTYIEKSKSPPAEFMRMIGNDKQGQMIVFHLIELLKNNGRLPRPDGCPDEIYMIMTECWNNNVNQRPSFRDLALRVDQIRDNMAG
Chain of JAK1 (P23458 whole entry): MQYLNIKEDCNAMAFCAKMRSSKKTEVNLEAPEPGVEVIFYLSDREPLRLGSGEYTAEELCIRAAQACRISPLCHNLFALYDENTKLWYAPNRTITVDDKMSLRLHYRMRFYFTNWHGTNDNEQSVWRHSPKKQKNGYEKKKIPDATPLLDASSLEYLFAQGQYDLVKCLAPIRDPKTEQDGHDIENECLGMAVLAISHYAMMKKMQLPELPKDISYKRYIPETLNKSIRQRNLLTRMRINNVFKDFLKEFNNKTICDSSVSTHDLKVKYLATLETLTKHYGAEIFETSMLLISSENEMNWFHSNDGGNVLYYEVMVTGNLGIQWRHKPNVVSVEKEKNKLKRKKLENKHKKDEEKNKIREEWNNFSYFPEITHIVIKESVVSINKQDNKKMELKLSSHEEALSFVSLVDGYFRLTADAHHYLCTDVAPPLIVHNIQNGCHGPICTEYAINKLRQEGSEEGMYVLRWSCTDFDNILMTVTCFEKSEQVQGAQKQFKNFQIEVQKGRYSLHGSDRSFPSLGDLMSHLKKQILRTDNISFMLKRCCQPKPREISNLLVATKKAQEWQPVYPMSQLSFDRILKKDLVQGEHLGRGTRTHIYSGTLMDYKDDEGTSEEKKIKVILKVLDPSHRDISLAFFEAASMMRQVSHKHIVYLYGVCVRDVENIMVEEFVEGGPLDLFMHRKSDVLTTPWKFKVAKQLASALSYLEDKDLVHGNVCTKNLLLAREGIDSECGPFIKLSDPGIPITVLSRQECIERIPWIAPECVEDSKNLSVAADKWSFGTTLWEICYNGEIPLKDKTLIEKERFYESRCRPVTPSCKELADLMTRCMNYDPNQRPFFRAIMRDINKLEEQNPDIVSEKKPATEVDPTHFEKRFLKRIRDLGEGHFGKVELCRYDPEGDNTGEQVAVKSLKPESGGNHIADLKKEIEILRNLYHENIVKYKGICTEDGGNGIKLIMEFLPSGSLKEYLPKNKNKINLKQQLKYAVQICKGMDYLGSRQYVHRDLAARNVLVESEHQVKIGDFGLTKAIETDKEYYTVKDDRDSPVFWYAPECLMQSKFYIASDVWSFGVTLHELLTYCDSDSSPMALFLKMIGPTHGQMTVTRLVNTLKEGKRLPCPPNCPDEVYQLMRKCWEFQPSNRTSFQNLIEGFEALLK

As a reminder, the IC50 is the midpoint of a concentration-inhibition curve. Low readings indicate greater potency in that assay, high ones weaker potency in that assay. Regarding `CCCS(=O)(=O)N1CC(n2cc(-c3ccnc(Nc4cnn(C)c4)n3)cn2)C1` [TDM-180666, N-(1-methyl-1H-pyrazol-4-yl)-4-(1-(1-(propylsulfonyl)azetidin-3-yl)-1H-pyrazol-4-yl)pyrimidin-2-amine], the 50% inhibitory concentration (IC50) is no less than 10 µM at JAK3, no less than 10 µM on JAK1, 1 to 10 µM against JAK2 and no less than 10 µM against Tyk2.

As to `CCCS(=O)(=O)N1CCC(n2cc(-c3ccnc(Nc4cnn(C)c4)n3)cn2)CC1` [TDM-180675, N-(1-methyl-1H-pyrazol-4-yl)-4-(1-(1-(propylsulfonyl)piperidin-4-yl)-1H-pyrazol-4-yl)pyrimidin-2-amine], the concentration for half-maximal inhibition (IC50) is no less than 10 µM at JAK3, no less than 10 µM on JAK1, 1 to 10 µM at JAK2 and no less than 10 µM on Tyk2.

Consider `CCOCCS(=O)(=O)N1CC(CC#N)(n2cc(-c3ccnc(Nc4cnn(C)c4)n3)cn2)C1` [TDM-180796, 2-(1-((2-ethoxyethyl)sulfonyl)-3-(4-(2-((1-methyl-1H-pyrazol-4-yl)amino)pyrimidin-4-yl)-1H-pyrazol-1-yl)azetidin-3-yl)acetonitrile], for which the IC50 at JAK3 was no less than 10 µM; at JAK1 it was 1 to 10 µM; against JAK2, 0.1 to 1 µM; against Tyk2 it was 0.1 to 1 µM.

`Cn1cc(Nc2nccc(-c3cnn(C4(CC#N)CN(S(=O)(=O)C5CCOCC5)C4)c3)n2)cn1` [TDM-180797, 2-(3-(4-(2-((1-methyl-1H-pyrazol-4-yl)amino)pyrimidin-4-yl)-1H-pyrazol-1-yl)-1-((tetrahydro-2H-pyran-4-yl)sulfonyl)azetidin-3-yl)acetonitrile]: the half-inhibitory concentration (IC50) on JAK3 was no less than 10 µM; on JAK1 it was 0.1 to 1 µM; at JAK2 it was 0.1 to 1 µM; on Tyk2, 0.1 to 1 µM.

Turning to `CCCCS(=O)(=O)N1CC(CC#N)(n2cc(-c3ccnc(Nc4cnn(C)c4)n3)cn2)C1` [TDM-180807, 2-(1-(butylsulfonyl)-3-(4-(2-((1-methyl-1H-pyrazol-4-yl)amino)pyrimidin-4-yl)-1H-pyrazol-1-yl)azetidin-3-yl)acetonitrile], the IC50 is no less than 10 µM at JAK3, 1 to 10 µM at JAK1, 0.1 to 1 µM against JAK2 and 0.1 to 1 µM against Tyk2.

For the compound `Cn1cc(Nc2nccc(-c3ccn(C4(CC#N)CN(S(=O)(=O)C5CCOCC5)C4)c3)n2)cn1` [TDM-180855, 2-(3-(3-(2-((1-methyl-1H-pyrazol-4-yl)amino)pyrimidin-4-yl)-1H-pyrrol-1-yl)-1-((tetrahydro-2H-pyran-4-yl)sulfonyl)azetidin-3-yl)acetonitrile], the 50% inhibitory concentration (IC50) is 1 to 10 µM against JAK3, 0.1 to 1 µM against JAK1, 0.1 to 1 µM against JAK2 and 0.1 to 1 µM against Tyk2.

`CC(=O)N1CC(n2cc(-c3ccnc(Nc4cnn(C)c4)c3)cn2)C1` [TDM-180645]: the IC50 at JAK3, against JAK1, on JAK2 and against Tyk2 was no less than 10 µM throughout.

Take `Cn1cc(Nc2nccc(-c3cnn(C4CN(C(=O)CO)C4)c3)n2)cn1` [TDM-180672, 2-hydroxy-1-(3(4-(2-((1-methyl-1H-pyrazol-4-yl)amino)pyrimidin-4-yl)-1H-pyrazol-1-yl)azetidin-1-yl)ethanone]: the IC50 at JAK3, against JAK1, at JAK2 and against Tyk2 was no less than 10 µM in each case.

For `Cn1cc(Nc2nccc(-c3cnn(C4(CC#N)CN(S(=O)(=O)CCC(F)(F)F)C4)c3)n2)cn1` [TDM-180808, 2-(3-(4-(2-((1-methyl-1H-pyrazol-4-yl)amino)pyrimidin-4-yl)-1H-pyrazol-1-yl)-1-((3,3,3-trifluoropropyl)sulfonyl)azetidin-3-yl)acetonitrile], the IC50 on JAK3 lay within 1 to 10 µM; against JAK1, 0.1 to 1 µM; against JAK2, 0.1 to 1 µM; against Tyk2, 0.1 to 1 µM.

With `Cn1cc(Nc2nccc(-c3cnn(C4CCN(C(=O)CO)CC4)c3)n2)cn1` [TDM-180681, 2-hydroxy-1-(4-(4-(2-((1-methyl-1H-pyrazol-4-yl)amino)pyrimidin-4-yl)-1H-pyrazol-1-yl)piperidin-1-yl)ethanone], the IC50 against JAK3, at JAK1, at JAK2 and on Tyk2 was no less than 10 µM throughout.

For `Cn1cc(Nc2nccc(-c3cnn(C4CCN(C(=O)CC#N)C4)c3)n2)cn1` (centres unmarked) [TDM-180653, 3-(3-(4-(2-((1-methyl-1H-pyrazol-4-yl)amino)pyrimidin-4-yl)-1H-pyrazol-1-yl)pyrrolidin-1-yl)-3-oxopropanenitrile], the 50% inhibitory concentration (IC50) against JAK3 was no less than 10 µM; against JAK1, no less than 10 µM; on JAK2, 1 to 10 µM; at Tyk2 it was 1 to 10 µM.
